“Also recorded” adds a separate entry of the source.
Assays:
AML-12 cells = experiment: Cytotoxicity (LDH release, ATP level) in AML-12 cells; type: cell-based, mouse; conditions: 10 nM to 300 μM; 4 hrs; DMSO 1%
Protocol: (§1) HePG2 and AML-12 cells are seeded and a dose-response of the compound is performed at various concentrations. Cells are stimulated and the supernatant is used to perform LDH release as a measure of necrosis while the cells are lysed to detect ATP levels for determining cell viability.
(§2) Cytotoxicity: 20000 HePG2 and AML-12 cells were seeded in 96 well plate (Viewplate PerkinElmer). Dose-response of the compound in Table 2 was performed using HP D300 digital dispenser, ranging from 10 nM to 300 μM with constant DMSO 1% in medium. Cells were stimulated for 4 hrs at 37° C.; the supernatant was used to perform LDH release (Cytotox-one, Promega) as a measure of necrosis while the cells were lysed to detect ATP level for determining cell viability (Celltiter-glo, Promega) according to manufacturer's instructions.

hERG potassium channel = hERG potassium channel (Homo sapiens (Human), UniProt Q12809); experiment: Predictor hERG assay, fluorescence polarization tracer displacement; conditions: hERG channel affinity binding; DMSO 1%
Excerpt: The Predictor hERG assay kit is stably transfected with hERG potassium channel and a high-affinity red fluorescent hERG channel ligand and is used for the determination of hERG channel affinity binding of compounds of Formula (I), Formula (Ia), Formula (Ib), Formula (II), or Formula (III), or a pharmaceutically acceptable salt thereof. Compounds that bind to the hERG channel protein (competitors) are identified by their ability to displace the tracer which results in a lower fluorescence polarization.
The Predictor hERG assay kit (Invitrogen), containing membrane preparations from Chinese hamster ovary cells stably transfected with hERG potassium channel and a high-affinity red fluorescent hERG channel ligand (tracer), was used for the determination of hERG channel affinity binding of the test compounds in Table 2. Compounds that bind to the hERG channel protein (competitors) were identified by their ability to displace the tracer, resulting in a lower fluorescence polarization. The final concentration of DMSO in each well was maintained at 1%. The assays were performed according to the manufacturer's protocol (Invitrogen).

HePG2 cells = experiment: Cytotoxicity (LDH release, ATP level) in HePG2 cells; type: cell-based; conditions: 10 nM to 300 μM; 4 hrs; DMSO 1%
Protocol: as §1, §2

[1] = system: human primary hepatocytes; experiment: NAD+ content in human primary hepatocytes (LCMS/MS); type: cell-based; conditions: 0.5 μM and 5 μM, FIG. 1
Protocol: Primary hepatocytes are treated with different concentrations of a compound of Formula (I), Formula (Ia), Formula (Ib), Formula (II), or Formula (III), or a pharmaceutically acceptable salt thereof, or MEHP (control) after seeding. The compound is replaced every 24 hours, and then cells are directly harvested and lysed to detect NAD^+ content through LC MS/MS (liquid chromatography mass spectrometry/mass spectroscopy).
The NAD^+ concentration or content was determined in human primary hepatocytes treated with Compound 4. Vehicle (NT) was used as a control.
At least three experiments were run treating primary hepatocytes with different concentrations of Compound 4 (0.5 μM and 5 μM) after 48 hrs from seeding. Compound 4 was replaced every 24 hrs, and then cells were directly harvested and lysed with ACN/H2O (ratio 5:1). LCMS/MS was used to detect and measure NAD^+ concentration/content. […] (FIG. 1)
The NAD^+ concentration or content was determined in human primary hepatocytes treated with Compound 1 and MEHP, a known ACMSD inhibitor. MEHP was used as a control.
At least three experiments were run treating primary hepatocytes with different concentrations of Compound 1 (0.5 μM, 5 μM, and 50 μM) after 48 hrs from seeding. Compound 1 was replaced every 24 hrs, and then cells were directly harvested and lysed with ACN/H2O (ratio 5:1). […]

[2] = system: murine primary hepatocytes; experiment: NAD+ content in murine primary hepatocytes (HPLC, mass-spectrometry); type: cell-based, mouse; conditions: 24 hours
SOD2 [3] = experiment: Modulation of SOD2 activity in AML-12 cells; type: cell-based, mouse; conditions: 24 hours
Protocol: Primary hepatocytes or AML-12 cells are lysed and total protein concentration is determined using the Bradford assay. SOD2 activity is determined at indicated times after treatment with a compound of Formula (I), Formula (Ia), Formula (Ib), Formula (II), or Formula (III), or a pharmaceutically acceptable salt thereof, using a SOD Assay Kit. Absorbance is determined and results are expressed in U/ml/mg of protein according to the standard curve and measured protein concentration. […]
Primary hepatocytes or AML-12 cells were then lysed in a 20 mM HEPES buffer (Gibco), pH 7.2, containing 1 mM EGTA (Sigma), 210 mM mannitol (Sigma), and 70 mM sucrose (AMRESCO). Total protein concentration was determined using the Bradford assay (BioRad). SOD-2 activity was determined at indicated times after ACMSD inhibitor treatment by the SOD Assay Kit (Cayman Chemical) according to the manufacturer's instructions. […] Absorbance was determined with a Victor X4 multi-label plate reader (Perkin-Elmer) at 450 nm. Results are expressed in U/ml/mg of protein according to the standard curve and measured protein concentration.

FoxO1 = FoxO1 phosphorylation levels in AML-12 cells (western blot); type: cell-based, mouse; conditions: 24 hours, FIG. 6
Protocol: AML-12 cells are treated with different concentrations of a compound of Formula (I), Formula (Ia), Formula (Ib), Formula (II), or Formula (III), or a pharmaceutically acceptable salt thereof. Cells are then lysed, and analyzed by SDS-PAGE/western blot. Blocking and antibody incubations are then done and each protein present is detected with its specific antibody.
AML-12 cells were treated with different concentrations of Compound 1 or Compound 17 for 24 hours. Cells were then lysed in lysis buffer (50 mM Tris, 150 mM KCl, EDTA 1 mM, NP40 1%) containing protease and phosphatase inhibitors, and analyzed by SDS-PAGE/western blot. Blocking and antibody incubations were done in 5% milk. Each protein present was detected with its specific antibody. Tubulin antibody was obtained from Sigma Inc, FoxO1 and phopho-FoxO1 (Ser256) antibodies were obtained from Cell Signaling. Antibody detection reactions were developed by enhanced chemiluminescence (Advansta, Calif., USA) using x-ray films.

[4] = system: SIRT1-regulated genes (Pgc1a, Sod1, Sod2); experiment: RT-qPCR analysis of SIRT1-regulated genes in primary murine hepatocytes; type: cell-based; conditions: primary mouse hepatocytes; 24 hrs; 5 nM-500 nM range
Protocol: Cells (AML-12, Hepa-1.6, HEK-293, primary human and murine hepatocytes) are treated with different concentrations of a compound of Formula (I), Formula (Ia), Formula (Ib), Formula (II), or Formula (III), or a pharmaceutically acceptable salt thereof and the gene expression of ACMSD, Pgc1a, Sod1, and Sod2 (MnSOD) is determined using RT-qPCR. Total RNA is extracted from cells and the extracted RNA is treated with DNase and used for reverse transcription (RT).
Gene expression of ACMSD and genes known to be regulated by SIRT1, (an enzyme that is strictly NAD^+ dependent) such as Pgc1a, Sod1, Sod2 (MnSOD), were analysed in AML-12 cells, Hepa-1.6 cells and primary murine hepatocytes treated with Compound 1 or 17.
Cells (AML-12, Hepa-1.6, HEK-293, primary human and murine hepatocytes) were treated with different concentrations of Compound 1 or Compound 17. Total RNA was extracted from cells using TRIzol (Invitrogen) according to the manufacturer's instructions. The RNA was treated with DNase, and 2 μg of RNA was used for reverse transcription (RT). 50× diluted cDNA was used for RT-quantitative PCR (RT-qPCR) reactions. The RT-qPCR reactions were performed using the Light-Cycler system (Roche Applied Science) and a qPCR Supermix (QIAGEN) with the indicated primers. The average of at least three technical repeats was used for each biological data point.

SOD2 [5] = experiment: Modulation of SOD2 activity in murine primary hepatocytes; type: cell-based, mouse
Protocol: Primary hepatocytes or AML-12 cells are lysed and total protein concentration is determined using the Bradford assay. SOD2 activity is determined at indicated times after treatment with a compound of Formula (I), Formula (Ia), Formula (Ib), Formula (II), or Formula (III), or a pharmaceutically acceptable salt thereof, using a SOD Assay Kit. Absorbance is determined and results are expressed in U/ml/mg of protein according to the standard curve and measured protein concentration.
Primary hepatocytes were prepared from 8-12-week-old C57BL/6J mice by collagenase perfusion method. Mouse livers were perfused with Hank's balanced salt solution (HBSS, KCl, 5.4 mM; KH2PO4, 0.45 mM; NaCl, 138 mM; NaHCO3, 4.2 mM; Na2HPO4, 0.34 mM; glucose, 5.5 mM; […]; EGTA, 50 mM; CaCl2, 50 mM; pH 7.4). Livers were then washed at a rate of 5 ml/min through the portal vein. After washing, livers were perfused with collagenase (0.025%) solution. Cell viability was assessed by the trypan blue method. Isolated primary hepatocytes were plated with DMEM medium (Gibco) including 10% FCS, 10 units per ml penicillin and HEPES for buffering. The cells were maintained in culture at 37° C. in a humidified atmosphere of 5% CO2/95% air. After 6-8 hrs of attachment, this medium was replaced with media containing different concentrations of an ACMSD inhibitor (i.e., Compound 1 or Compound 17) or with the corresponding concentration of DMSO (as a control). Primary hepatocytes were harvested about 24 hrs later if not indicated differently.
Primary hepatocytes or AML-12 cells were then lysed in a 20 mM HEPES buffer (Gibco), pH 7.2, containing 1 mM EGTA (Sigma), 210 mM mannitol (Sigma), and 70 mM sucrose (AMRESCO). Total protein concentration was determined using the Bradford assay (BioRad). SOD-2 activity was determined at indicated times after ACMSD inhibitor treatment by the SOD Assay Kit (Cayman Chemical) according to the manufacturer's instructions. In order to specifically detect the SOD2 activity 2 mM potassium cyanide was added to the assay, which inhibited both Cu/Zn-SOD and extracellular SOD, resulting in the detection of only Mn-SOD (SOD-2) activity. Absorbance was determined with a Victor X4 multi-label plate reader (Perkin-Elmer) at 450 nm. Results are expressed in U/ml/mg of protein according to the standard curve and measured protein concentration.

Caspase 3/7 = experiment: Modulation of caspase 3/7 activity in MDCK cells injured with cisplatin; type: cell-based
Protocol: MDCK cells are cultured in base medium to a final concentration of 10%. Cells are plated into 96 wells and 24 hours after cell plating the medium is changed with fresh medium supplemented with 1% FBS. Cisplatin is then used to induce cell injury. Different concentrations of Formula (I), Formula (Ia), Formula (Ib), Formula (II), or Formula (III), or a pharmaceutically acceptable salt thereof (in DMSO) are added in combination with cisplatin or prior to adding cisplatin. Caspase 3/7 activity (Promega) is determined according to standard procedures using a luminescent signal readout on a plate reader. Each experiment/condition is performed in triplicate. Caspase activity is analyzed as percentage effect normalized to the cisplatin alone and vehicle treated cells.
MDCK cells (MDCK (NBL-2) ATCC® CCL-34™) were cultured in base medium ATCC-formulated Eagle's Minimum Essential Medium, Catalog No. 30-2003 with fetal bovine serum (FBS) to a final concentration of 10%. […]
Caspase 3/7 activity (Promega) was determined according to standard procedures using a luminescent signal readout on a Victor V plate reader (PerkinElmer). […]
Caspase activity was analyzed as percentage effect normalized to the cisplatin alone (100%) and vehicle treated cells as 0% of caspase activity. Data were analyzed by GraphPad Software. […]

hERG potassium channel, sequence (Q12809 whole entry): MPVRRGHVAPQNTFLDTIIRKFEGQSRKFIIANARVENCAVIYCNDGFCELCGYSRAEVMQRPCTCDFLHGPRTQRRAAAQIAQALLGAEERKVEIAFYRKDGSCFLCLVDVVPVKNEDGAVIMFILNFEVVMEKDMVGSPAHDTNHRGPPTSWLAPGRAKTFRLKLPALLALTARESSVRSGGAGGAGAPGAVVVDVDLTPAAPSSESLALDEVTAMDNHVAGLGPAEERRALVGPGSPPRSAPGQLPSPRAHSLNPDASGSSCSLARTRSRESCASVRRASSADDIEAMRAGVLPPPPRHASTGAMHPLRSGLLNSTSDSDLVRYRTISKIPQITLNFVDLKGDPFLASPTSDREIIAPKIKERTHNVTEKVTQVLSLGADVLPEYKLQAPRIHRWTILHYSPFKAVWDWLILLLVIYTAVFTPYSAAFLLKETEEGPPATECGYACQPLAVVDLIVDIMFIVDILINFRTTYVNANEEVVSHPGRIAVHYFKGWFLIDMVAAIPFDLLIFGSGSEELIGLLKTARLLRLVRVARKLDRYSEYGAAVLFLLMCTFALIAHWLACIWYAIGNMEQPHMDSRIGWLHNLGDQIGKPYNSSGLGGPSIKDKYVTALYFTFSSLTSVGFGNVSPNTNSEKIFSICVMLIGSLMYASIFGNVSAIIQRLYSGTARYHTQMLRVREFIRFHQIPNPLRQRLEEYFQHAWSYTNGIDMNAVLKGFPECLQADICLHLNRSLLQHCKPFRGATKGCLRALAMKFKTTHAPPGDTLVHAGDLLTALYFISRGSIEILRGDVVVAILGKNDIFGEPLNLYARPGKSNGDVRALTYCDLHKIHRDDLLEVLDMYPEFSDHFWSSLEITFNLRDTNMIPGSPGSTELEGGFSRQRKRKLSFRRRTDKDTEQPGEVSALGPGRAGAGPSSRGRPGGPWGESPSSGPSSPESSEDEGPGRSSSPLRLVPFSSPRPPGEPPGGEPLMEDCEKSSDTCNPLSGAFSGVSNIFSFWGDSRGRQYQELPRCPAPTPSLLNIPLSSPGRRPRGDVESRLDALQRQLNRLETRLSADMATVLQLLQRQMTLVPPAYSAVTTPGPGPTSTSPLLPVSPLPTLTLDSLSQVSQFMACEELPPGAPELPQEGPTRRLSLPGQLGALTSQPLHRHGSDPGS

Row | Compound | Cytotoxicity AML-12 (AML-12 cells) | hERG (hERG potassium channel) | Cytotoxicity Hep-G2 (HePG2 cells) | also measured
1 | N#Cc1c(-c2cccs2)nc(SCc2cccc(C(=O)O)c2)[nH]c1=O [Compound 4] | Not Toxic | No Activity | Not Toxic | ACMSD-1 inhibition (NAD+ concentration/content) [1]: inhibits ACMSD-1 enzyme at concentrations as low as 0.5 μM and 5 μM
2 | O=C(O)c1cccc(CSc2nc(-c3ccccc3)c(Br)c(=O)[nH]2)c1 [Compound 11] | Not Toxic | No Activity | Not Toxic | 
3 | N#Cc1c(-c2cccs2)nc(SCc2cccc(-c3noc(=O)[nH]3)c2)[nH]c1=O [Compound 19] | Not Toxic | No Activity | Not Toxic | 
4 | N#Cc1c(-c2nccs2)nc(SCc2cccc(C(=O)O)c2)[nH]c1=O [Compound 5] | Not Toxic | No Activity | Not Toxic | 
5 | N#Cc1c(-c2cccs2)nc(SCc2cccc(-c3nn[nH]n3)c2)[nH]c1=O [Compound 17] | Not Toxic | No Activity | Not Toxic | intra-cellular NAD+ levels ([2]; 5 nM, 10 nM and 50 nM, FIG. 2): increase in NAD^+ levels; also recorded: significant and dose-dependent increase; concentration with significant effect on NAD+ levels [2]: ≤ 5 nM; SOD2 activity (SOD2 [3]): induced in a dose-dependent manner; FoxO1 phosphorylation at Ser256 (FoxO1): decrease in FoxO1 phosphorylation at Ser256 with increasing dose; Pgc1a mRNA expression levels [4]: dose-dependent increase; Sod2 (MnSOD) mRNA expression levels [4]: dose-dependent increase; dose at which effects on SOD2 activity were observed (SOD2 [5]; primary hepatocytes): about 5 nM; dose at which the effect on SOD2 activity reached a maximum (SOD2 [5]; primary hepatocytes): about 50 nM; SOD2 activity (SOD2 [5]; primary murine hepatocytes, 24 hours): induced in a dose-dependent manner
6 | N#Cc1c(-c2cccs2)nc(SCc2cccc(CC(=O)O)c2)[nH]c1=O [Compound 18] |  |  |  | activity of caspase 3/7 induced by cisplatin (Caspase 3/7; cisplatin 50 μM for 16 hrs): decreases, in significant manner; concentration with significant decrease of caspase activity vs cisplatin alone (p<0.001) (Caspase 3/7; in combination with cisplatin): 100 µM
7 | N#Cc1c(-c2ccc(Cl)cc2)nc(SCc2ccc(C(=O)O)cc2)[nH]c1=O [Compound 8] | Not Toxic | No Activity | Not Toxic | 
